In patent publication US4555513A, “1,2 Dihydro- and 1,2,3,4-tetrahydro quinolylacetic acids and analgesic use thereof” (priority 1982, dated 1985):
Read-outs that look alike come from different tables or passages of the source.

Experiments:
[1] = Acute toxicity (oral, mortality after 72 hours); conditions: mouse, in vivo
Protocol: Groups of 10 male dd mice weighing some 18 g were orally administered the examined drugs and the number of death p 72 hours later was recorded.

dd mice [2] = assay: Analgesic effects by acetic acid writhing test; format: in vivo, mouse (male dd mice)
Protocol: 30 minutes after the examined drug was orally given, 0.1 ml/10 g of 0.6% acetic acid solution was intraperitoneally administered to group of 10 male dd mice weighing some 18 g. The number of stretching was calculted during an observation period of 15 to 20 minutes after acetic acid treatment. The average inhibition rate of stretching among 8 animals was regarded as the inhibition rate of the drug, excluding 2 animals showing maximum and minimum numbers of stretching.

dd mice [3] = assay: Analgesic effects by a modified Haffner method; format: in vivo, mouse (dd mice); conditions: with morphine hydrochloride 2 mg/kg s.c.
Protocol: Group of 10 dd mice were orally administered the examined drugs and 30 minutes later 2 mg/kg of morphine hydrochloride, the threshold dose, was injected subcutaneously. At 15, 30, 45 and 60 minutes thereafter, the root of mouse's tail was squeezed with a Kocher's forceps.

[4] = 800 mg/kg oral, 72 hours, read-out: Mortality
[5] = 400 mg/kg oral, 72 hours, read-out: Mortality

Cc1c(N(C)C)c(=O)n(-c2ccccc2)n1C [Aminopyrine, reference compound]
mortality at 72 h [1, 4]: 100%
Analgesic effects (inhibition rate of stretching) (dd mice [2]; 50 mg/kg oral): 14%
Analgesic effects (inhibition rate of stretching) (dd mice [2]; 100 mg/kg oral): 47%
Analgesic effects (inhibition rate of stretching) (dd mice [2]; 150 mg/kg oral): 60%
Analgesic effects (dd mice [3]; 100 mg/kg oral): 30%
Analgesic effects (dd mice [3]; 200 mg/kg oral): 35%

CC(C(=O)O)c1cc(Cl)c2c(c1)C=CC(C)(C)N2 (stereo not drawn) [Compound 35, 2-(8-Chloro-1,2-dihydro-2,2-dimethylquinolin-6-yl)propionic acid]
mortality at 72 h [1, 5]: 0%
mortality at 72 h [1, 4]: 20%
Analgesic effects (inhibition rate of stretching) (dd mice [2]; 50 mg/kg oral): 37%
Analgesic effects (inhibition rate of stretching) (dd mice [2]; 100 mg/kg oral): 52%
Analgesic effects (inhibition rate of stretching) (dd mice [2]; 150 mg/kg oral): 68%
Analgesic effects (dd mice [3]; 100 mg/kg oral): 35%
Analgesic effects (dd mice [3]; 200 mg/kg oral): 50%

CC(C(=O)O)c1cc(Cl)c2c(c1)CCC(C)(C)N2 (stereo not drawn) [Compound 36, 2-(8-Chloro-1,2,3,4-tetrahydro-2,2-dimethylquinolin-6-yl)propionic acid]
mortality at 72 h [1, 5]: 0%
mortality at 72 h [1, 4]: 10%
Analgesic effects (inhibition rate of stretching) (dd mice [2]; 50 mg/kg oral): 36%
Analgesic effects (inhibition rate of stretching) (dd mice [2]; 100 mg/kg oral): 61%
Analgesic effects (inhibition rate of stretching) (dd mice [2]; 150 mg/kg oral): 73%
Analgesic effects (dd mice [3]; 100 mg/kg oral): 30%
Analgesic effects (dd mice [3]; 200 mg/kg oral): 55%

CCCCC1C(=O)N(c2ccccc2)N(c2ccccc2)C1=O [Phenylbutazone, reference compound]
mortality at 72 h ([1]; po, 600 mg/kg): 100%
